This is an account of results in US20250302040A1, “FUNGICIDAL COMBINATIONS OF FLUAZINAM AND USES THEREOF” (priority 2022, published 2025).

One assay deals with Zymoseptoria tritici. The assay can be described thus: Microtiter plate (MTP) fungal growth assay, optical density, Wadley analysis. Particulars: single active ingredient, OD 590 nm after 5 days at 19° C. The class given is cell-based.
A further assay has as its system Venturia inaequalis. Nature of the assay: Apple scab control on apple leaves (incidence), Colby analysis. Particulars: 27 days after application.
In another assay the test system is Phytophthora infestans. The assay can be described thus: microbe, parasite or virus in culture. It counts as cell-based.
[1] abbreviates: Fluazinam 350 g/ha, Fluxapyroxad 75 g/ha, mixture 350 + 75 g/ha.

≈ marks a conversion by molar mass, not a printed value.

Experimental for Venturia inaequalis: Here, efficacy or percent inhibition is determined in %.
Efficacy of the fungicidal compositions is evaluated with reference to a scale of 0 to 100% in comparison with untreated control plots. 0 means no control and 100 means complete control of the target disease.
The experiments were conducted by applying commercially available formulations of Fluazinam and other mixture partners, alone or with their tank-mixed compositions. The compositions were diluted with water.
Each formulation with active ingredient is diluted with water and biological efficacy trials on target fungi are conducted.

In the assay with Zymoseptoria tritici, `COc1ccnc(C(=O)N[C@@H](C)C(=O)O[C@@H](C)C(c2ccc(F)cc2)c2ccc(F)cc2)c1OC(C)=O` [Florylpicoxamid] returned an EC50 observed of 0.0022 µg/mL (≈ 0.00429 µM).

In turn, `Cc1ccc(C(=O)OCc2ccc(Oc3ccccc3)cc2)c(N)n1` [Aminopyrifen] gave an EC50 observed in the assay on Zymoseptoria tritici of 0.2220 µg/mL (≈ 0.664 µM).

Consider `Cn1cc(C(=O)Nc2ccccc2-c2cc(F)c(F)c(F)c2)c(C(F)F)n1` [Fluxapyroxad], for which the “Observed % control (O)” value turned out to be 27.50% with Venturia inaequalis (setting [1]) and 43.80% in the assay with Venturia inaequalis (Fluxapyroxad 90 g/ha, mixture 350 + 90 g/ha).

Take `Cn1nnnc1/C(=N\OCc1cccc(NC(=O)OC(C)(C)C)n1)c1ccccc1` [Picarbutrazox]: in the assay with Phytophthora infestans (single active ingredient, OD 590 nm after 5 days at 19° C.), the EC50 observed was 0.0026 µg/mL (≈ 0.00635 µM).

What is called EC50 is the concentration needed to bring the measured effect to its halfway point. In the case of `O=[N+]([O-])c1cc(C(F)(F)F)c(Cl)c([N+](=O)[O-])c1Nc1ncc(C(F)(F)F)cc1Cl` [Fluazinam], the EC50 was 0.528 µg/mL (≈ 1.14 µM) in the assay on Phytophthora infestans (Phytophthora infestans, 120 h, read-out: EC50 observed) and 0.257 µg/mL (≈ 0.552 µM) with Zymoseptoria tritici (Zymoseptoria tritici, 120 h, read-out: EC50 observed). Besides, the “Observed % control (O)” value with Venturia inaequalis (setting [1]) turned out to be 30.50%.

With `Cn1cc(C(=O)Nc2ccccc2Oc2ccc(C(F)(F)F)cc2Cl)c(C(F)F)n1` [Flubeneteram], in the assay with Zymoseptoria tritici, the EC50 observed was found to be 0.1221 µg/mL (≈ 0.274 µM).
